This series can be described thus: Pharmacokinetic analysis: apparent half-life of L-Dopa in rat plasma after dosing prodrug co-dosed with Benserazide. The class given is in vivo. The following applies: male Wistar rats, L-Dopa generated from prodrug. On the procedure:
The compound of the invention (I) and comparison compounds (II-VII) were tested in an assay which measures parameters relevant to the pharmacokinetic profile of the test compound. The assay measured the length of time L-dopa remained in the blood of test animals Naïve male Wistar rats (bodyweight=250-500 g) were used for the pharmacokinetic studies. Animals were fasted overnight. The compound of interest was dissolved in 0.9% saline and co-dosed with Benserazide (10 mg/kg) at a molecular weight equivalent dose to 12.5 mg/kg L-Dopa. Blood samples were taken via a butterfly needle located into the lateral tail vein and collected into sample tubes containing heparin as the anti-coagulant. Blood samples were centrifuged at 5000 rpm for 10 minutes; the supernatant plasma was removed and stored at −80° C. Stock solutions of 10 mM L-Dopa and Warfarin were prepared in 20% TFA, 10 mM sodium meta bisulphite and DMSO, respectively. […] Quantification of L-Dopa and Warfarin was achieved by monitoring the transitions of m/z=198.075/152.1 and […], respectively. The apparent half-life of the L-Dopa generated from the prodrugs was calculated from the terminal plasma samples using non compartment models of WinNonLin (Pharsight California USA) with no weighting.

As for `COC(=O)[C@@H](N)Cc1ccc(OC(=O)CC(C)(C)C)c(OC(=O)CC(C)(C)C)c1.Cl` [I, (S)-2-[3,4-Bis-(3,3-dimethyl-butyryloxy)-phenyl]-1-methoxycarbonyl-ethyl-ammonium chloride], the “apparent half-life compared with structurally analogous comparison compounds” value is on record as “significantly greater than the structurally analogous comparison compounds”.

The values are drawn from patent US8377986B2, “Amino acid derivatives” (Proximagen Ltd., priority 2007, dated 2013).
